{"source": "ChEMBL document CHEMBL1157738", "about": "“Simocyclinone D8 turns on against Gram-negative bacteria in a clinical setting” (2010)", "key": {"[1]": {"tested_on": "Escherichia coli", "assay": "Antibacterial activity against Escherichia coli isolate 9 expressing qnr B19 gene, GyrA D87G mutant assessed as residual bacterial survival at 50 mg/L after 24 hrs by twofold serial dilution method", "assay_type": "functional", "conditions": "isolate 9, 24 h"}, "[2]": {"tested_on": "Escherichia coli", "assay": "Antibacterial activity against Escherichia coli XL-1Blue after 24 hrs by twofold serial dilution method", "assay_type": "functional"}, "[3]": {"tested_on": "Escherichia coli", "assay": "Antibacterial activity against Escherichia coli JM110 after 24 hrs by twofold serial dilution method", "assay_type": "functional"}, "[4]": {"tested_on": "Escherichia coli", "assay": "Antibacterial activity against Escherichia coli isolate 32 after 24 hrs by twofold serial dilution method", "assay_type": "functional"}, "[5]": {"tested_on": "Escherichia coli", "assay": "Antibacterial activity against Escherichia coli isolate 115 expressing GyrA S83L mutant assessed as residual bacterial survival at 50 mg/L after 24 hrs by twofold serial dilution method", "assay_type": "functional", "conditions": "isolate 115, 24 h"}, "[6]": {"tested_on": "Escherichia coli", "assay": "Antibacterial activity against Escherichia coli isolate 32 assessed as residual bacterial survival at 50 mg/L after 24 hrs by twofold serial dilution method", "assay_type": "functional", "conditions": "isolate 32, 24 h"}, "[7]": {"tested_on": "Escherichia coli", "assay": "Antibacterial activity against Escherichia coli HB101 assessed as residual bacterial survival at 50 mg/L after 24 hrs by twofold serial dilution method", "assay_type": "functional", "conditions": "HB101, 24 h"}, "[8]": {"tested_on": "Escherichia coli", "assay": "Antibacterial activity against Escherichia coli isolate 47 expressing qnr B19 gene after 24 hrs by twofold serial dilution method", "assay_type": "functional"}, "[9]": {"tested_on": "Klebsiella pneumoniae", "assay": "Antimicrobial activity against Klebsiella pneumoniae isolate 97 assessed drug uptake", "assay_type": "functional, organism-based"}, "[10]": {"tested_on": "Escherichia coli", "assay": "Antibacterial activity against Escherichia coli isolate 13 assessed as residual bacterial survival at 50 mg/L after 24 hrs by twofold serial dilution method", "assay_type": "functional", "conditions": "isolate 13, 24 h"}, "[11]": {"tested_on": "Escherichia coli", "assay": "Antibacterial activity against Escherichia coli isolate 191 expressing qnr S1 gene after 24 hrs by twofold serial dilution method", "assay_type": "functional"}, "[12]": {"tested_on": "Escherichia coli", "assay": "Antibacterial activity against Escherichia coli isolate 85 expressing GyrA S83L mutant assessed as residual bacterial survival at 50 mg/L after 24 hrs by twofold serial dilution method", "assay_type": "functional", "conditions": "isolate 85, 24 h"}, "[13]": {"tested_on": "Escherichia coli", "assay": "Antibacterial activity against Escherichia coli isolate 191 expressing qnr S1 gene assessed as residual bacterial survival at 50 mg/L after 24 hrs by twofold serial dilution method", "assay_type": "functional", "conditions": "isolate 191, 24 h"}, "[14]": {"tested_on": "Staphylococcus aureus", "assay": "Antibacterial activity against Staphylococcus aureus assessed as residual bacterial survival at 50 mg/L after 24 hrs by twofold serial dilution method", "assay_type": "functional"}, "[15]": {"tested_on": "Klebsiella pneumoniae", "assay": "Antibacterial activity against Klebsiella pneumoniae isolate 16 expressing qnr B19 gene, GyrA D87G mutant assessed as residual bacterial survival at 50 mg/L after 24 hrs by twofold serial dilution method", "assay_type": "functional", "conditions": "isolate 16, 24 h"}, "[16]": {"tested_on": "Klebsiella pneumoniae", "assay": "Antibacterial activity against Klebsiella pneumoniae isolate 97 assessed as drug uptake relative to total amount drug treated", "assay_type": "functional, organism-based"}, "[17]": {"tested_on": "Klebsiella pneumoniae", "assay": "Antimicrobial activity against Klebsiella pneumoniae isolate 92 assessed as drug uptake", "assay_type": "functional, organism-based"}, "[18]": {"tested_on": "Escherichia coli", "assay": "Antibacterial activity against Escherichia coli Top10 after 24 hrs by twofold serial dilution method", "assay_type": "functional"}, "[19]": {"tested_on": "Escherichia coli", "assay": "Antibacterial activity against Escherichia coli isolate 24 assessed as drug uptake relative to total amount drug treated", "assay_type": "functional, organism-based"}, "[20]": {"tested_on": "Klebsiella pneumoniae", "assay": "Antibacterial activity against Klebsiella pneumoniae isolate 370 expressing qnr B19 gene, GyrA D87G mutant assessed as residual bacterial survival at 50 mg/L after 24 hrs by twofold serial dilution method", "assay_type": "functional", "conditions": "isolate 370, 24 h"}, "[21]": {"tested_on": "Escherichia coli", "assay": "Antibacterial activity against Escherichia coli isolate 7 after 24 hrs by twofold serial dilution method", "assay_type": "functional"}, "[22]": {"tested_on": "Klebsiella pneumoniae", "assay": "Antibacterial activity against Klebsiella pneumoniae isolate 110 expressing qnr B19 gene, GyrA D87G mutant assessed as residual bacterial survival at 50 mg/L after 24 hrs by twofold serial dilution method", "assay_type": "functional", "conditions": "isolate 110, 24 h"}, "[23]": {"tested_on": "Klebsiella pneumoniae", "assay": "Antibacterial activity against Klebsiella pneumoniae isolate 5 expressing qnr B19 gene, GyrA D87G mutant assessed as residual bacterial survival at 50 mg/L after 24 hrs by twofold serial dilution method", "assay_type": "functional", "conditions": "isolate 5, 24 h"}, "[24]": {"tested_on": "Klebsiella pneumoniae", "assay": "Antibacterial activity against Klebsiella pneumoniae isolate 134 assessed as residual bacterial survival at 50 mg/L after 24 hrs by twofold serial dilution method", "assay_type": "functional", "conditions": "isolate 134, 24 h"}, "[25]": {"tested_on": "Klebsiella pneumoniae", "assay": "Antibacterial activity against Klebsiella pneumoniae isolate 328 expressing qnr B19 gene, GyrA D87G mutant assessed as residual bacterial survival at 50 mg/L after 24 hrs by twofold serial dilution method", "assay_type": "functional", "conditions": "isolate 328, 24 h"}, "[26]": {"tested_on": "Escherichia coli", "assay": "Antibacterial activity against Escherichia coli XL-1Blue assessed as residual bacterial survival at 50 mg/L after 24 hrs by twofold serial dilution method", "assay_type": "functional"}, "[27]": {"tested_on": "Klebsiella pneumoniae", "assay": "Antibacterial activity against Klebsiella pneumoniae isolate 204 expressing qnr B19 gene after 24 hrs by twofold serial dilution method", "assay_type": "functional"}, "[28]": {"tested_on": "Escherichia coli", "assay": "Antibacterial activity against Escherichia coli isolate 21 assessed as residual bacterial survival at 50 mg/L after 24 hrs by twofold serial dilution method", "assay_type": "functional", "conditions": "isolate 21, 24 h"}, "[29]": {"tested_on": "Escherichia coli", "assay": "Antibacterial activity against Escherichia coli isolate 13 after 24 hrs by twofold serial dilution method", "assay_type": "functional"}, "[30]": {"tested_on": "Escherichia coli", "assay": "Antibacterial activity against Escherichia coli isolate 24 after 24 hrs by twofold serial dilution method", "assay_type": "functional"}, "[31]": {"tested_on": "Escherichia coli", "assay": "Antibacterial activity against Escherichia coli JM110 assessed as residual bacterial survival at 50 mg/L after 24 hrs by twofold serial dilution method", "assay_type": "functional", "conditions": "JM110, 24 h"}}}
{"smiles": "CC(=O)O[C@@H]1[C@@H](C)O[C@@H](c2ccc3c(c2O)[C@@H](O)[C@]24O[C@@]2(C3=O)[C@@]2(O)C(=O)C=C(C)C[C@@]2(O)C[C@@H]4O)C[C@H]1OC(=O)/C=C/C=C/C=C/C=C/C(=O)Nc1c(O)c2ccc(O)c(Cl)c2oc1=O", "note": "[SIMOCYCLINONE D8]", "values": [{"measurement": "survival at 50 µg/mL", "setting": "[1]", "result": "> 90", "unit": "%"}, {"measurement": "MIC50", "setting": "[2]", "result": "> 100", "unit": "µg/mL"}, {"measurement": "MIC50", "setting": "[3]", "result": "> 100", "unit": "µg/mL"}, {"measurement": "MIC50", "setting": "[4]", "result": "> 100", "unit": "µg/mL"}, {"measurement": "survival at 50 µg/mL", "setting": "[5]", "result": "> 90", "unit": "%"}, {"measurement": "survival at 50 µg/mL", "setting": "[6]", "result": "> 90", "unit": "%"}, {"measurement": "survival at 50 µg/mL", "setting": "[7]", "result": "> 90", "unit": "%"}, {"measurement": "MIC50", "setting": "[8]", "result": 12, "unit": "µg/mL"}, {"measurement": "Drug uptake", "setting": "[9]", "result": 40, "unit": "pmol"}, {"measurement": "survival at 50 µg/mL", "setting": "[10]", "result": "> 90", "unit": "%"}, {"measurement": "MIC50", "setting": "[11]", "result": 25, "unit": "µg/mL"}, {"measurement": "survival at 50 µg/mL", "setting": "[12]", "result": "> 90", "unit": "%"}, {"measurement": "survival at 50 µg/mL", "setting": "[13]", "result": 56, "unit": "%"}, {"measurement": "survival at 50 µg/mL", "setting": "[14]", "result": 66, "unit": "%"}, {"measurement": "survival at 50 µg/mL", "setting": "[15]", "result": "> 90", "unit": "%"}, {"measurement": "Drug uptake", "setting": "[16]", "result": 1.3, "unit": "%"}, {"measurement": "Drug uptake", "setting": "[17]", "result": 60, "unit": "pmol"}, {"measurement": "MIC50", "setting": "[18]", "result": "> 100", "unit": "µg/mL"}, {"measurement": "Drug uptake", "setting": "[19]", "result": 7.53, "unit": "%"}, {"measurement": "survival at 50 µg/mL", "setting": "[20]", "result": "> 90", "unit": "%"}, {"measurement": "MIC50", "setting": "[21]", "result": ">100", "unit": "%"}, {"measurement": "survival at 50 µg/mL", "setting": "[22]", "result": "> 90", "unit": "%"}, {"measurement": "survival at 50 µg/mL", "setting": "[23]", "result": "> 90", "unit": "%"}, {"measurement": "survival at 50 µg/mL", "setting": "[24]", "result": 51, "unit": "%"}, {"measurement": "survival at 50 µg/mL", "setting": "[25]", "result": "> 90", "unit": "%"}, {"measurement": "survival at 50 µg/mL", "setting": "[26]", "result": "> 90", "unit": "%"}, {"measurement": "MIC50", "setting": "[27]", "result": ">100", "unit": "%"}, {"measurement": "survival at 50 µg/mL", "setting": "[28]", "result": "> 90", "unit": "%"}, {"measurement": "MIC50", "setting": "[29]", "result": "> 100", "unit": "µg/mL"}, {"measurement": "MIC50", "setting": "[30]", "result": 3.12, "unit": "µg/mL"}, {"measurement": "survival at 50 µg/mL", "setting": "[31]", "result": "> 90", "unit": "%"}]}
